From article PMC12412615, “Tailored SirReal-type inhibitors enhance SIRT2 inhibition through ligand stabilization and disruption of NAD^+ co-factor binding” (RSC Medicinal Chemistry, 2025) come the findings set out here.

Common to all, as to assay type: biochemical
Assay [1] deals with T1, SIRT2 (Homo sapiens, UniProt Q8IXJ6).
T1 sequence (Q8IXJ6 1-389): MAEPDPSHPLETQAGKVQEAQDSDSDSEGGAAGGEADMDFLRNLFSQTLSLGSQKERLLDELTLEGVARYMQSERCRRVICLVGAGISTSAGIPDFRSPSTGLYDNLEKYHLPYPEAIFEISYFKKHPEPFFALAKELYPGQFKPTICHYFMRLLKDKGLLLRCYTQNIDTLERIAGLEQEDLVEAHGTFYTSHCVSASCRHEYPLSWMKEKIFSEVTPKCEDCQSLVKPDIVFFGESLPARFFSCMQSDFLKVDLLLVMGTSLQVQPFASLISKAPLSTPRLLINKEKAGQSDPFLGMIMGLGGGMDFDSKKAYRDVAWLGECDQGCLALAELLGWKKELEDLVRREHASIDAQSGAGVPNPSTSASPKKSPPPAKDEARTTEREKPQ
Put plainly: Fluorescence-based SIRT2 deacetylation inhibition assay (Reaction Biology Corporation). More on the design: purchased Reaction Biology Corporation (Malvern, USA), contract assay. Conditions: for IC50: fluorogenic peptide of p53 residues 379–382 (RHKK(Ac)-Fl), mean with standard deviation, n = 3. The method, then:
The determination of SIRT2 inhibitory activity was performed by Reaction Biology Corporation (Malvern, USA) with a fluorescence-based assay utilizing the fluorogenic peptide of p53 residues 379–382 (RHKK(Ac)-Fl). […]. […] […]. On the contrary, we observed a significant increase in potency by the introduction of halogens at the R^2 position (compounds 29–31), highlighting the importance of the position of the functional group modifications. […]. […] Additional factors such as the atomic radius and thus steric requirements of these halogens may also play a significant role in the increase in potency, where the smaller chlorine atom may experience less steric effects upon binding at the active site compared to the larger bromine and iodine atoms. […]. […] IC50 values against SIRT2 are given as mean with standard deviations (n = 3). Inhibition percentages at 50 μM for SIRT1, 3 and 5 are given as mean without standard deviations (n = 2)
(§1) The determination of inhibitory activity on the corresponding sirtuin enzymes was carried out based on a fluorescence-based assay commissioned by Reaction Biology Corporation (Malvern, USA) following an internal experimental protocol. Test substances were prepared in DMSO, delivered into the respective enzyme mixture (prepared with reaction buffer: Tris-HCl, pH = 8) and incubated for 10 minutes at 30 °C. Subsequently the substrate mixture (NAD^+ and a 7-amino-4-methylcoumarin-based fluorogenic peptide substrate) was added to initiate the deacetylation reaction. After 2 hours incubation at 30 °C, 2 mM nicotinamide (universal sirtuin inhibitor, to stop the reaction) and protease-based developer (to generate fluorescence by the cleavage of 7-amino-4-methylcoumarin) was added. At 30 °C 1 hour later, the respective fluorescence was measured (extinction/emission = 360 nm/460 nm). The inhibitory effect of the test compounds is indirectly proportional to the amount of converted fluorescent substrate standardized as 100% activity of the control without inhibitor. The test substances were tested in 10-dose IC50 triplicate mode, with 3-fold serial dilution starting at 50 μM final reaction concentration and if necessary, starting at 100 μM. For each serially diluted replicate of the triplicate, an IC50 value was determined by sigmoidal curve fitting, resulting in three IC50 values, from which the mean and corresponding standard deviation were subsequently calculated. Data processing was performed based on Prism 8.0.2 software (GraphPad Software, Boston, USA). Subtype selectivity on SIRT1, SIRT3 and SIRT5 was evaluated in a single dose duplicate mode at 50 μM final test compound concentration according to previous outlined internal protocol of Reaction Biology Corporation by determining the enzyme activity of the respective sirtuins in % (no inhibitor control as 100% activity).

Assay [2] addresses T2, human SIRT3 (Homo sapiens, UniProt Q9NTG7).
T2 construct: purchased Reaction Biology Corporation (Malvern, USA), contract assay
T2 sequence (Q9NTG7 1-399): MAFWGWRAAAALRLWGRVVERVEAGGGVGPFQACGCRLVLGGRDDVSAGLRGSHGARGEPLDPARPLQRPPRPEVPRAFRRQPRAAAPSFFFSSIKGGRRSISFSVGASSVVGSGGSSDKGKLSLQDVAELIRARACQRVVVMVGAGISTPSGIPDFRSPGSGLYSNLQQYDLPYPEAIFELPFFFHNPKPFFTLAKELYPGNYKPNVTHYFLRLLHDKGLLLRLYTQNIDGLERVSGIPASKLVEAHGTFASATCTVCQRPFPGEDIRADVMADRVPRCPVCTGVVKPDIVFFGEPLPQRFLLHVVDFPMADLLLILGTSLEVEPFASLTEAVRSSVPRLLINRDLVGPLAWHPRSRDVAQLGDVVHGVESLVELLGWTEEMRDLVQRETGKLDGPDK
Put plainly: Fluorescence-based sirtuin subtype selectivity assay, SIRT3, single dose 50 μM. The note with it: 50 μM compound; mean, n = 2. The method, then: (§2) IC50 values against SIRT2 are given as mean with standard deviations (n = 3). Inhibition percentages at 50 μM for SIRT1, 3 and 5 are given as mean without standard deviations (n = 2)
(§3) The determination of subtype selectivity against SIRT1, 3 and 5 was performed by measuring the residual enzyme activity after treatment with the corresponding inhibitor at a fixed concentration of 50 μM and subsequent calculation of the percentage inhibition.
as §1

Assay [3] concerns the target T3, human SIRT1 (Homo sapiens, UniProt Q96EB6).
T3 construct: purchased Reaction Biology Corporation (Malvern, USA), contract assay
T3 sequence (Q96EB6 1-747): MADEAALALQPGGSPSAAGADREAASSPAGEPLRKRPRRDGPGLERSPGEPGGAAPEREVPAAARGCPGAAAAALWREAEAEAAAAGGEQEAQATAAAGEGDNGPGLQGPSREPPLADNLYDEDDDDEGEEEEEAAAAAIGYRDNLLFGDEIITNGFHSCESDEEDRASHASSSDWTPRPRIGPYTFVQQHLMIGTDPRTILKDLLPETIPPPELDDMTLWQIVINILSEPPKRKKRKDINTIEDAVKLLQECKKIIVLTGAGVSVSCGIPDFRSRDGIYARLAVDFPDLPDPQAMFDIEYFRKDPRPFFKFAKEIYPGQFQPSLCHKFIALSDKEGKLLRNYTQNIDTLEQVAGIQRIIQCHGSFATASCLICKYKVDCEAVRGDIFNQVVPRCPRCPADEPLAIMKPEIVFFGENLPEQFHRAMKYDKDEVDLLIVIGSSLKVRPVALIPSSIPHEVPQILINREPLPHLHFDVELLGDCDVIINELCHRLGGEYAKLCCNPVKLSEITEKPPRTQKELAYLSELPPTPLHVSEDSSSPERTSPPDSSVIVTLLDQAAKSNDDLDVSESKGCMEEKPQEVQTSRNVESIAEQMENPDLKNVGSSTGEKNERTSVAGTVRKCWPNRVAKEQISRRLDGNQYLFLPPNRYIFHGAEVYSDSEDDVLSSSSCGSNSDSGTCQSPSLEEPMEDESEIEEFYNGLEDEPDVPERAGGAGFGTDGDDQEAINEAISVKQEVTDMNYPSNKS
Nature of the assay: Fluorescence-based sirtuin subtype selectivity assay, SIRT1, single dose 50 μM. Conditions: 50 μM compound; mean, n = 2. As for the experimental part:
as §2, §3, §1

Assay [4] has as its target T4, human SIRT5 (Homo sapiens, UniProt Q9NXA8).
T4 construct: purchased Reaction Biology Corporation (Malvern, USA), contract assay
T4 sequence (Q9NXA8 37-310): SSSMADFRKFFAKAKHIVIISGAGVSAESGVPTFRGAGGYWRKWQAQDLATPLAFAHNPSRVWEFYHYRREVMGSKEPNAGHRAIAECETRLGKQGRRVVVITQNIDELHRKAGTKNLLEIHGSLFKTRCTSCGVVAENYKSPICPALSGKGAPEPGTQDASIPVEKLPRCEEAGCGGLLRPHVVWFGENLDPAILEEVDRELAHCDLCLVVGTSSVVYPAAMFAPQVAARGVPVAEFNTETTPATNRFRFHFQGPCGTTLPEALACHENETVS
Nature of the assay: Fluorescence-based sirtuin subtype selectivity assay, SIRT5, single dose 50 μM. The note with it: 50 μM compound; mean, n = 2. The method, then:
as §2, §3, §1

As for `Cc1cc(C)nc(SCC(=O)Nc2cccc(COc3ccc(NC(=O)c4cnn(C)c4)cc3Br)c2)n1` [Compound 11, N-(3-Bromo-4-((3-(2-((4,6-dimethylpyrimidin-2-yl)thio)acetamido)benzyl)oxy)phenyl)-1-methyl-1H-pyrazole-4-carboxamide], half-maximal inhibition in assay [1] (IC50) required 81 ± 10 nM. For the same compound, the inhibition (in general, the relative decrease from the control value, in per cent) at 50 µM in assay [2] came to 24%; in assay [4], 13%. Moreover, the “Inhibition of SIRT1 in %@50 μM” value in assay [3] was “n.i”.

Take `Cc1cc(C)nc(SCC(=O)Nc2cccc(COc3ccc(NC(=O)c4cnn(C)c4)cc3C=O)c2)n1` [Compound 12, N-(4-((3-(2-((4,6-Dimethylpyrimidin-2-yl)thio)acetamido)benzyl)oxy)-3-formylphenyl)-1-methyl-1H-pyrazole-4-carboxamide]: in assay [1], half-maximal inhibition (IC50) required 147 ± 13 nM. In addition, the inhibition at 50 µM is 24% in assay [2], 2% in assay [3] and 16% in assay [4].

Regarding `Cc1cc(C)nc(SCC(=O)Nc2cccc(COc3ccc(NC(=O)c4cnn(C)c4)cc3B(O)O)c2)n1` [Compound 13, (2-((3-(2-((4,6-Dimethylpyrimidin-2-yl)thio)acetamido)benzyl)oxy)-5-(1-methyl-1H-pyrazole-4-carboxamido)phenyl)boronic acid], the IC50 (commonly the concentration that inhibits the measured activity by half) in assay [1] is 294 ± 17 nM. Besides, the inhibition at 50 µM turned out to be 5% in assay [2], 29% in assay [3] and 10% in assay [4].

In assay [1], `Cc1cc(C)nc(SCC(=O)Nc2cccc(COc3ccc(NC(=O)c4cnn(C)c4)cc3C#N)c2)n1` [Compound 14, N-(3-Cyano-4-((3-(2-((4,6-dimethylpyrimidin-2-yl)thio)acetamido)benzyl)oxy)phenyl)-1-methyl-1H-pyrazole-4-carboxamide] had an IC50 of 125 ± 18 nM. Also, the inhibition at 50 µM was 35% in assay [2], 6% in assay [3] and 2% in assay [4].

As for `Cc1cc(C)nc(SCC(=O)Nc2cccc(COc3ccc(NC(=O)c4cnn(C)c4)c(Br)c3)c2)n1` [Compound 30, N-(2-Bromo-4-((3-(2-((4,6-dimethylpyrimidin-2-yl)thio)acetamido)benzyl)oxy)phenyl)-1-methyl-1H-pyrazole-4-carboxamide], in assay [1], the IC50 is 54 ± 7 nM. Further, the inhibition at 50 µM in assay [2] amounted to 43%; in assay [3], 4%; in assay [4], 1%.

In assay [1], `Cc1cc(C)nc(SCC(=O)Nc2cccc(COc3ccc(NC(=O)c4cnn(C)c4)c(I)c3)c2)n1` [Compound 31, N-(4-((3-(2-((4,6-Dimethylpyrimidin-2-yl)thio)acetamido)benzyl)oxy)-2-iodophenyl)-1-methyl-1H-pyrazole-4-carboxamide] returned an IC50 of 29 ± 2 nM. The inhibition at 50 µM came out at 22% in assay [2], 5% in assay [3] and 12% in assay [4].

For `Cc1cc(C)nc(SCC(=O)Nc2cccc(COc3ccc(NC(=O)c4cnn(C)c4)c(C=O)c3)c2)n1` [Compound 32, N-(4-((3-(2-((4,6-Dimethylpyrimidin-2-yl)thio)acetamido)benzyl)oxy)-2-formylphenyl)-1-methyl-1H-pyrazole-4-carboxamide], the IC50 in assay [1] was 184 ± 9 nM. Also, the inhibition at 50 µM in assay [2] amounted to 7%; in assay [4], 6%. Further, in assay [3], the “Inhibition of SIRT1 in %@50 μM” value is “n.i”.

Consider `Cc1cc(C)nc(SCC(=O)Nc2cccc(COc3ccc(NC(=O)c4cnn(C)c4)c(B(O)O)c3)c2)n1` [Compound 33, (5-((3-(2-((4,6-Dimethylpyrimidin-2-yl)thio)acetamido)benzyl)oxy)-2-(1-methyl-1H-pyrazole-4-carboxamido)phenyl)boronic acid], for which, in assay [1], the IC50 is 202 ± 6 nM. Also, the inhibition at 50 µM was found to be 24% in assay [2], 71% in assay [3] and 14% in assay [4].

For `Cc1cc(C)nc(SCC(=O)Nc2cccc(COc3ccc(NC(=O)c4cnn(C)c4)c(C#N)c3)c2)n1` [Compound 34, N-(2-Cyano-4-((3-(2-((4,6-dimethylpyrimidin-2-yl)thio)acetamido)benzyl)oxy)phenyl)-1-methyl-1H-pyrazole-4-carboxamide], inhibition in assay [1] was half-maximal at 91 ± 7 nM (IC50). The inhibition at 50 µM worked out at 31% in assay [2], 23% in assay [3] and 4% in assay [4].

On to `Cc1cc(C)nc(SCC(=O)Nc2ncc(Cc3cccc4ccc(C#N)cc34)s2)n1` [Compound 46, N-(5-((7-Cyanonaphthalen-1-yl)methyl)thiazol-2-yl)-2-((4,6-dimethylpyrimidin-2-yl)thio)acetamide], for which the “Fold increase in SIRT2 potency compared to lead structure” value in assay [1] (29 vs 24a, 46 vs SirReal2) was 2 fold. This compound also came in with an IC50 in assay [1] of 122 ± 8 nM. Also, the figures for the inhibition at 50 µM in assay [2], in assay [3] and in assay [4] were 9%, 6% and 8%, respectively.
